ChEMBL document CHEMBL1201862, “PubChem BioAssay data set” (2004)
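1) Cells in 96-well plates. 2) Compound, 48 h, 5 concentrations. 3) Linear interpolation between surrounding doses. 4) Unreached endpoint = highest concentration. At the GI50, growth is halved.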 Active and inactive are the calls of the source. Rule as the data show it: active = GI50 up to about 1.1 µM and inactive = higher.

Tests used:
Assay in all cases: inhibition of tumour cell growth, NCI panel, 48 h
SN12C = system: SN12C
HOP-62 = system: HOP-62
LOX IMVI = system: LOX IMVI
CAKI-1 = system: CAKI-1
HCT-116 = system: HCT-116
K562 = system: K562
COLO 205 = system: COLO 205
MDA-N = system: MDA-N
MDA-MB-435 = system: MDA-MB-435
IGROV-1 = system: IGROV-1
BT-549 = system: BT-549
NCI-H460 = system: NCI-H460
OVCAR-8 = system: OVCAR-8
HCC 2998 = system: HCC 2998
786-0 = system: 786-0
NCI-H226 = system: NCI-H226
SNB-19 = system: SNB-19
OVCAR-4 = system: OVCAR-4
NCI-H23 = system: NCI-H23
TK-10 = system: TK-10
HCT-15 = system: HCT-15
UACC-62 = system: UACC-62
T47D = system: T47D
UO-31 = system: UO-31
PC-3 = system: PC-3
SK-MEL-5 = system: SK-MEL-5
UACC-257 = system: UACC-257
A549 = system: A549
A498 = system: A498
RXF 393 = system: RXF 393
EKVX = system: EKVX
OVCAR-3 = system: OVCAR-3
SW-620 = system: SW-620
CCRF-CEM = system: CCRF-CEM
HT-29 = system: HT-29
SK-MEL-28 = system: SK-MEL-28
SF-539 = system: SF-539
MCF7 = system: MCF7
SNB-75 = system: SNB-75
Hs-578T = system: Hs-578T
OVCAR-5 = system: OVCAR-5
RPMI-8226 = system: RPMI-8226
Malme-3M = system: Malme-3M
SR = system: SR
NCI-H522 = system: NCI-H522
U-251 = system: U-251
ACHN = system: ACHN
MOLT-4 = system: MOLT-4
SF-268 = system: SF-268
NCI/ADR-RES = system: NCI/ADR-RES
M14 = system: M14
MDA-MB-231 = system: MDA-MB-231
KM12 = system: KM12
SF-295 = system: SF-295
SK-OV-3 = system: SK-OV-3
DU-145 = system: DU-145
SK-MEL-2 = system: SK-MEL-2
HL-60 = system: HL-60
HOP-92 = system: HOP-92

Measured: GI50

Nc1nc(N)c2ncn(-c3ccc(Br)cc3)c2n1
active: SR 0.119 µM
inactive: SN12C 16.9 µM | HOP-62 23.6 µM | LOX IMVI 27 µM | CAKI-1 7.21 µM | HCT-116 25.5 µM | K562 11 µM | COLO 205 > 50.5 µM | MDA-N 60.4 µM | MDA-MB-435 39.2 µM | IGROV-1 5.38 µM | BT-549 97.7 µM | NCI-H460 34.9 µM | OVCAR-8 14.6 µM | HCC 2998 37.7 µM | 786-0 28.1 µM | NCI-H226 40.6 µM | SNB-19 > 59.4 µM | OVCAR-4 > 38.3 µM | NCI-H23 40.6 µM | TK-10 35.1 µM | UACC-62 17.1 µM | T47D 29.4 µM | UO-31 13.5 µM | PC-3 23 µM | SK-MEL-5 32.5 µM | UACC-257 > 100 µM | A549 33.1 µM | A498 15.6 µM | RXF 393 14.2 µM | EKVX 5.45 µM | OVCAR-3 16.2 µM | SW-620 45.9 µM | CCRF-CEM 8.43 µM | HT-29 15.1 µM | SK-MEL-28 > 43.3 µM | SF-539 14.7 µM | MCF7 20.3 µM | SNB-75 6.97 µM | Hs-578T 4.12 µM | OVCAR-5 20.9 µM | RPMI-8226 11.4 µM | Malme-3M 10.6 µM | NCI-H522 9.77 µM | U-251 24.9 µM | ACHN 13.3 µM | MOLT-4 11.6 µM | SF-268 15.4 µM | NCI/ADR-RES 10.7 µM | M14 14.6 µM | MDA-MB-231 23.8 µM | KM12 14.4 µM | SF-295 34.4 µM | SK-OV-3 15 µM | DU-145 24.5 µM | SK-MEL-2 14.4 µM
19.9 µM: HCT-15

COC(=O)[C@@H]1CO[C@H](C(C)(C)C)N1C(=O)N1C=CC(=O)C[C@H]1C
inactive: SN12C > 100 µM | HOP-62 > 100 µM | LOX IMVI > 100 µM | CAKI-1 > 100 µM | HCT-116 > 100 µM | K562 > 100 µM | COLO 205 > 100 µM | MDA-N > 100 µM | MDA-MB-435 > 100 µM | IGROV-1 > 100 µM | BT-549 > 100 µM | OVCAR-8 > 100 µM | 786-0 > 100 µM | NCI-H226 > 100 µM | NCI-H23 > 100 µM | TK-10 > 100 µM | UACC-62 > 100 µM | T47D > 100 µM | UO-31 > 100 µM | PC-3 > 100 µM | SK-MEL-5 > 100 µM | UACC-257 > 100 µM | A549 > 100 µM | A498 > 100 µM | HL-60 > 100 µM | RXF 393 > 100 µM | EKVX > 100 µM | OVCAR-3 > 100 µM | SW-620 > 100 µM | CCRF-CEM > 100 µM | HT-29 > 100 µM | SK-MEL-28 > 100 µM | MCF7 > 100 µM | SNB-75 > 100 µM | Hs-578T > 100 µM | OVCAR-5 > 100 µM | RPMI-8226 > 100 µM | Malme-3M > 100 µM | SR > 100 µM | NCI-H522 > 100 µM | U-251 > 100 µM | ACHN > 100 µM | MOLT-4 > 10 µM | SF-268 > 100 µM | NCI/ADR-RES > 100 µM | M14 > 100 µM | MDA-MB-231 > 100 µM | KM12 > 100 µM | HOP-92 > 100 µM | SF-295 > 100 µM | SK-OV-3 > 100 µM | DU-145 > 100 µM | SK-MEL-2 > 100 µM
